Data on one compound can be found in publication PMC8037910, “Effect of Chronic Administration of 5-(3-chlorophenyl)-4-Hexyl-2,4 -Dihydro-3H-1,2,4-Triazole-3-Thione (TP-315)—A New Anticonvulsant Drug Candidate—On Living Organisms” (International Journal of Molecular Sciences, 2021).

A short description of data set [1]: Quantification of TP-315 in mouse serum by HPLC-FL. In kind it is in vivo. To be noted: male, Albino Swiss, ip, mice, 47.6 mg/kg i.p. for 14 days, 24 h after the last injection, mean ± SD, read-out: Mean measured concentration of TP-315 in the plasma of the mice. As for the experimental part: (§1) The experiments were carried out on adult male Albino Swiss mice weighing 20 ± 5 g. […] The mice from the control group (8 mice) received 0.9% NaCl solution i.p. once daily for 14 days.
After completion of the experimental procedure (on the 15th day—24h after the last injection), the animals were decapitated. Their livers and kidneys were collected for histopathological examination, while blood was drawn for biochemical and morphological tests and for HPLC-FL determination of TP-315 in serum. […]
Serum samples for recovery study and quantification of the examined compound using the standard addition method were prepared by spiking 0.1 mL of TP-315 free serum or the serum of treated mice with 0.4 mL deionized water and 0.5 mL of the appropriate standard solution, providing a calibration range between 0.0125–0.05 mg/L (0.0125, 0.025, 0.0375, and 0.05 mg/L) and QC levels of 0.06, 0.12, and 0.18 mg/L. Investigated serum samples were treated in the same manner as the QCs. […]
The HPLC analysis was carried out using an Elite LaChrom HPLC Merck-Hitachi (Merck, Darmstadt, Germany) equipped with a fluorescence detector (L-2485U) and a column thermostat Jetstream 2 Plus (100375, Knauer). […] The fluorescence detection was performed at an excitation of 265 nm and an emission of 411 nm. […]

For a further data set, the target named is T1, CYP3A5 (Homo sapiens, UniProt P20815).
T1 construct: purchased Thermo Fisher Scientific
T1 sequence (P20815 whole entry): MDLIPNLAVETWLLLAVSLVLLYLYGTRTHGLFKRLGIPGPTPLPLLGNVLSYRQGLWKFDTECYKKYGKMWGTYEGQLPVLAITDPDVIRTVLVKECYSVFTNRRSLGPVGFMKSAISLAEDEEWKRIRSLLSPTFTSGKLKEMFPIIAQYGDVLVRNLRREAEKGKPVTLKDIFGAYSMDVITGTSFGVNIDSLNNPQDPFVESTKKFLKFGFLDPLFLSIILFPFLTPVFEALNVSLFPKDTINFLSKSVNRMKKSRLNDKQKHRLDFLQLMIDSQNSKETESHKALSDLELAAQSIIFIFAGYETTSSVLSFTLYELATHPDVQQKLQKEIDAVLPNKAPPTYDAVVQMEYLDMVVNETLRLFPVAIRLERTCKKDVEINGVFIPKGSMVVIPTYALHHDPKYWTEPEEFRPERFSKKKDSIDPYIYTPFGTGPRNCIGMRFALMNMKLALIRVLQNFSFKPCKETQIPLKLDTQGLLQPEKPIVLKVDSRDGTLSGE
As to the kind of experiment: Vivid CYP450 screening kit, CYP3A5. The note with it: 0.015 μg/mL, 20 min incubation, p > 0.05. In kind it is biochemical. The protocol:
(§2) Possible inhibitory effect of TP-315 on the catalytic activity of human cytochrome CYP450 enzymes was tested using Vivid CYP450 screening kits (Thermo Fisher Scientific, Waltham, MA, USA) according to the manufacturer’s standard procedure (Vivid BOMCC substrate CYP2B6 blue, Vivid DBOMF substrate CYP3A4 green, Vivid DBOMF substrate CYP3A5 green, Vivid EOMCC substrate CYP2C19 blue, Vivid MOBFC substrate CYP2D6 cyan). The experiment was carried out in the endpoint test mode (reading after 20 min of incubation). The test compound was dissolved in DMSO (starting concentrations, 2.5× concentrated); to avoid the influence of the solvent on the enzyme activity, the results were compared with the solvent control. The influence of TP-315 on the activity of selected enzymes was tested at concentrations of 0.015, 0.1, 0.5, 1, 2.5, 5, and 10 μg/mL. The positive control compounds (inhibitors) were miconazole (for CYP2C19 and CYP2B6), quinidine (for CYP2D6), and ketoconazole (for CYP3A4 and CYP3A5). Inhibitor concentrations were selected according to the manufacturer’s recommendations to achieve ≥90% inhibition. All inhibitors were obtained from Sigma-Aldrich (St. Louis, MO, USA). The BioTek Synergy H1 reader (BioTek Instruments, Inc., USA) was used to read the fluorescence according to the manufacturer’s guidelines. The tests were performed in duplicate.

The target in the next data set is T2, CYP3A4 (Homo sapiens, UniProt P08684).
T2 construct: purchased Thermo Fisher Scientific
T2 sequence (P08684 whole entry): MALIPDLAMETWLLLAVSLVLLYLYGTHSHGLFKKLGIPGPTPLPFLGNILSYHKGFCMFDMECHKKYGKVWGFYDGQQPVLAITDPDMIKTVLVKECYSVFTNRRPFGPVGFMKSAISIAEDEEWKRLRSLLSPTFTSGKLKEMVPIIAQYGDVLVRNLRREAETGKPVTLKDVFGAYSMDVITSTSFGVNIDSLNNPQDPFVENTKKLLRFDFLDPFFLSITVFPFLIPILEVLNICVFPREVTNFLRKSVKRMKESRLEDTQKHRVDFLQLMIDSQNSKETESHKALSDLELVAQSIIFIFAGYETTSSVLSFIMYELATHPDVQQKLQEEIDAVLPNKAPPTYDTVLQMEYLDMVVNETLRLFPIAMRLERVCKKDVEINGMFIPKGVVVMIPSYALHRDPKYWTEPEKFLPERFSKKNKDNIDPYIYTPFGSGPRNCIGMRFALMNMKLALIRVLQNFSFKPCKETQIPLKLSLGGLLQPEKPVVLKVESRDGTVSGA
The data set can be described thus: Vivid CYP450 screening kit, CYP3A4. In kind it is biochemical. The note with it: 0.015 μg/mL, 20 min incubation, p > 0.05. As for the experimental part:
as §2

For another data set, the system named is Albino Swiss mice. The data set can be described thus: Biochemical parameters of liver and renal function in serum after chronic administration. In kind it is in vivo. To be noted: 47.6 mg/kg i.p. for 14 days, unpaired t-test p > 0.05. As for the experimental part:
as §1
After completion of the experimental procedure (on the 15th day—24h after the last injection), the animals were decapitated. Their livers and kidneys were collected for histopathological examination, while blood was drawn for biochemical and morphological tests and for HPLC-FL determination of TP-315 in serum.
For the determination of biochemical parameters (ALT, AST, GGT, creatinine, urea), whole blood was collected in clotting activator tubes (Sarstadt, Nümbrecht, Germany). To obtain serum, blood tubes were centrifuged at 4200 RPM for 10 min. Biochemical determinations were performed on an ERBA XL 640 analyzer (ERBA Mannheim, Germany) according to the manufacturer’s standard procedure. Whole blood for the determination of morphological parameters was collected in ethylenediaminetetraacetic acid (EDTA) tubes (Sarstadt, Nümbrecht, Germany). Morphological parameters were determined on the MYTHIC 18 Cormay analyzer (Cormay, Lublin, Poland) according to the manufacturer’s standard procedure.

For `CCCCCCn1c(-c2cccc(Cl)c2)n[nH]c1=S` [TP-315, 5-(3-Chlorophenyl)-4-hexyl-2,4-dihydro-3H-1,2,4-triazole-3-thione], the concentration at 24 h in data set [1] came out at 14.5 ± 12.5 ng/mL. The “Inhibition of CYP3A5 activity compared to the control” value on CYP3A5 was “did not statistically significantly inhibit”. Besides, the “Inhibition of CYP3A4 activity compared to the control” value at CYP3A4 is reported as “did not statistically significantly inhibit”. In the data set with Albino Swiss mice, the “ALT in serum vs control group” value was “did not differ statistically significant”, the “AST in serum vs control group” value is given as “did not differ statistically significant”, the “Creatinine concentration in serum vs control group” value was “not statistically significant” and the “GGT in serum vs control group” value is “did not differ statistically significant”. The “Urea concentration in serum vs control group” value in the data set with Albino Swiss mice is on record as “not statistically significant”.
